Data taken from patent US20040162275A1, “Multivalently interactive molecular assembly, capturing agent, drug carrier, calcium chelating agent, and drug enhancer” (Nobuhiko Yui, priority 2002, published 2004).

Target: concanavalin A (ConA) (Canavalia ensiformis, UniProt P02866)
Assay: Hemagglutination inhibition test, Mal-polyrotaxane conjugate and ConA (Example 11)
Type: cell-based
Conditions: rat erythrocyte, ConA at 4-fold minimum hemagglutinating concentration, maltose basis, FIG. 19
Description: Next, hemagglutination inhibition test was performed to evaluate the interaction between Mal-polyrotaxane conjugate and concanavalin A (ConA), then 20 μL of diluted Mal-polyrotaxane conjugate in saline and 20 μL of solution of ConA in saline were dispensed in a 96well plate (U-bottom), stirred, and then incubated at 37° C. for 30 minutes. Next, 40 μL of 2% (v/v) rat erytlirocyte was added to the plate, and the mixture was stirred and then incubated at 37° C. for 30 minutes. The precipitation of erythrocyte was monitored to determine hemagglutination, and the minimum concentration to inhibit hemagglutination was determined. The ConA concentration was set up at a 4-fold higher value than the minimum concentration of ConA at which hemagglutination occurs.
Relative MIC=(Min. inhibitory conc. of maltose)/(Min inhibitory conc. of maltose in the conjugate)

Compound: OC[C@H]1O[C@H](O[C@H]2[C@H](O)[C@@H](O)C(O)O[C@@H]2CO)[C@H](O)[C@@H](O)[C@@H]1O (mixture of isomers) [Mal, maltose]
- minimum concentration to inhibit hemagglutination: 9.1 mM
